Results on 15 molecules are retold here after patent US20090047379A1, “Benzamide Compounds Useful as High Potency Sweet Taste Enhancers” (priority 2007, published 2009).

Where a SMILES comes first, the peptide text is derived from it.

Common to all, as to assay type: in vivo, human
In assay [1] the test system is sweet taste. The assay can be described thus: Comparisons of taste quality and intensity, solutions in water (Example 12, Table I). Particulars: for Other taste attributes: in vivo. The text has this: Sweetness is rapid and fades quickly on rinsing of the mouth.
Assay [2] concerns sweet taste. The experiment in a line: Sweetness in muffins, trained technical panel (second Example 14). Particulars: 10 ppm in muffin; for sweetness intensity rating: scale 0-9, 9 most sweetness. The method, then:
The sweeteners 2,3,5,6-tetrafluoro-4-methyl-N-(2-methylcyclohexyl)benzamide (sweetener A) and N-(2-methylcyclohexyl)-2,3,4,5,6 pentafluoro-benzamide -(sweetener B) were both evaluated in muffins. They were evaluated along with a blank muffin sample. Both sweeteners were evaluated at 10 ppm in the muffin. The samples were evaluated by a trained technical panel. They were asked to evaluate the profile and to give a rating between 0-9 on the sweetness intensity. The rating scale ranged from zero for no sweetness to 9 for the most sweetness. […] The samples were rating on sweet intensity (see Table 3). The samples ratings were as follows; sample A rated 5, sample B rated 6, sample C rated 8.

Assay [3] concerns sweet taste. The assay can be described thus: Comparison of sweetness at 5 ppm in plain water (Example 13). The method, then: Two molecules were compared to each other based on sweetness. Both molecules were evaluated at 5 ppm in plain water.
The test system of assay [4] is sweet taste. The experiment in a line: Sweetness enhancement of an 8 brix beverage, trained technical panel (Example 14). Particulars: 4 ppm in 8 brix beverage; for sweet intensity rating: ten point scale, nine most sweetness, zero no sweetness. The method, then:
An 8 brix, the measurement of the mass ratio of dissolved sugar in a liquid, beverage was prepared to evaluate two sweeteners, 2,3,5,6-tetrafluoro-4-methyl-N-(2-methylcyclohexyl)benzamide-(sweetener A) and N-(2-methylcyclohexyl)-2,3,4,5,6 pentafluoro-benzamide)—(sweetener B). The objective was to determine if the sweeteners enhanced an 8 brix beverage to make it taste more similar to a 10 brix beverage. There were four samples evaluated an 8 brix beverage blank, sweetener A in 8 brix beverage, sweetener B in 8 brix beverage and a 10 brix beverage blank. Both the sweeteners were evaluated at 4 ppm. The beverage samples were evaluated by a trained technical panel. The panel evaluated the sweetness profile and the sweet intensity. The intensity was rated on a ten point scale with nine being the most sweetness and zero having no sweetness. […] The sweet intensity ratings were as follows (see Table 2) sample A rated 6, sample B rated 7, sample C rated 9 and sample D rated 9.

Assay [5] relates to sweet taste. The experiment in a line: Cola beverage containing Aspartame, trained technical panel (Example 15). The following applies: for sweetness profile rating: scale 0-9, 9 the best. As to the method:
The sweeteners Benzamide, 2,3,5,6-[…]-4-methyl-N-(2-methylcyclohexyl)—(sweetener A) and Benzamide, 2,3,4,5,6-pentafluoro-N-(2-methylcyclohexyl)—(sweetener B) were both evaluated in a cola beverage that contained Aspartame. The purpose of this experiment was to evaluate the sweeteners profile in a sweetener blend. There were three separate samples evaluated, see Table 3. The samples were evaluated by a trained technical panel. The sweetness profile was rated on a scale from 0-9, with 0 being the worst and 9 the best. The first sample, Sample A, containing only aspartame at 300 ppm was rated a 4. […] The second sample, Sample B, contained Aspartame at 300 ppm and sweetener A at 3 ppm. […] The rating for sample B was a 9 for sweetness. The third sample, sample C, contained Aspartame at 300 ppm and sweetener B at 3 ppm.

In assay [6] the test system is sweet taste. The experiment in a line: Sweetener blends with Ace-K or Sucralose, trained technical panel (Example 16). Particulars: for overall group rating: scale 1-9, 9 the best; for blend rating: scale 1 to 9. As to the method:
A comparison of the synergistic effects the Benzamide, 2,3,4,5,6-Pentafluoro-N-(2-methylcyclohexyl)—(sweetener A) in combination with acesulfame-k, herein referred to as Ace-K and Sucralose was compared with the effects of Benzamide, 2,3,5,6-tetrafluoro-4-methyl-N-(2-methylcyclohexyl)—(sweetener B) in combination with the same commercial sweeteners. The samples were evaluated by a trained technical panel. The first sample was Ace-K at 100 ppm.
A similar evaluation with done with Sucralose as the commercial sweetener. An evaluation of Sucralose at 60 ppm was done in plain water. […] A comparison of the synergistic effects of sweetener A at 3 ppm in combination with Sucralose at 60 ppm was evaluated against sweetener B in the same combination. […] The blends were evaluated on a scale for 1 to 9.

Assay [7] concerns sweet taste. The experiment in a line: Structure activity example, tasting of analogues (Example 11). Particulars: when tasted. The text has this:
During our invention process, we observed repeatedly that a small structural difference can cause dramatic change in the taste. For example, compound N-(2-methylcyclohexyl)-2,3,4,5,6-pentafluoro-benzamide is very sweet; moving the methyl group to the 4-position render the resulting N-(4-methylcyclohexyl)-2,3,4,5,6-pentafluoro-benzamide bitter; moving the methyl group to nitrogen render the resulting N-cyclohexyl-2,3,4,5,6-pentafluoro-N-methyl-benzamide tasteless.
There is however an underlying theme, that being that an amide functionality is important.

Setting [8] is: 3 ppm with Aspartame 300 ppm in cola beverage.
[9] abbreviates: 3 ppm in combination with Ace-K at 100 ppm.
Where [10] appears, read: 3 ppm in combination with Sucralose at 60 ppm.
[11] abbreviates: Aspartame 300 ppm only in cola beverage.

In the case of `Cc1c(F)c(F)c(C(=O)N[C@H](C)C2CCCCC2)c(F)c1F` [Compound 40, (R)-N-1-cyclohexylethyl-2,3,5,6-tetrafluoro-4-methyl-benzamide], the Other taste attributes entry in assay [1] is “Bitter at 20 ppm”. For the same molecule, the Profile entry in assay [1] (sweetness onset and duration relative to sucrose) was “Poor sweet taste profile”.

For `O=C(N[C@@H]1CCCc2ccccc21)c1ccoc1` [N-[(1R)-1,2,3,4-tetrahydro-1-naphthalenyl]-3-furancarboxamide, reference compound], the Other taste attributes result in assay [1] is reported as “Clean”.

Take `CC1CCCCC1NC(=O)c1c(F)c(F)c(F)c(F)c1F` (stereo not shown) [Example 6, N-(2-methylcyclohexyl)-2,3,4,5,6-pentafluoro-benzamide]: in assay [1] (1 ppm in water), the “equal in sweetness to sucrose” value was 1-2 % sucrose and the taste description result was “sweetness is not immediate but builds after a few seconds but is very clean, lacking bitterness, off-taste or negative attribute”. Moreover, in assay [1] (4% sucrose plus 1 ppm in water), the “rated as sweet as sucrose” value was 8 % sucrose; the taste description entry was “longer lasting and considered to be quite acceptable sweet character lacking bitterness”. Also, the taste description result in assay [1] (4% sucrose plus 5 ppm in water) was “too sweet and too long lasting”. In assay [1] (5 ppm in water), the “equal in strength to sucrose” value is 4-6 % sucrose; the “sweet character lasts longer than sucrose” value was “up to 10 times longer”; the taste description entry is on record as “sweetness is not immediate but is very clean, lacking bitterness, off-taste or negative attribute”. Also, in assay [1], the Other taste attributes result is reported as “Clean”. Further, the “effect in combination with sucrose” value in assay [1] (low concentrations <4 ppm) is reported as “synergistic effect with sucrose”. In assay [2], the profile description result was “sweeter, long lasting sweetness and mouthwatering”; the sweetness intensity rating is 8. Moreover, in assay [3], the taste description entry is “mouth coating, intense sweet, no bitter notes, and had a fast sweetness onset”. For the same molecule, in assay [4], the sweetness profile comments entry was “sweeter, more mouthwatering, had a slight astringent aftertaste and had a similar sweetness profile to the 10 brix beverage”; the sweet intensity rating is listed as 9. Further, in assay [5] (setting [8]), the sweetness comments result is recorded as “sweetness had more impact than Sample A, but not as intense as Sample B” and the sweetness profile rating was found to be 6. Also, in assay [6] (setting [9]), the taste comments result is “strong sweetness upfront, bitter, enhanced bitterness in combination” and the overall group rating is given as 9. For the same molecule, in assay [6] (setting [10]), the taste comments result is “enhanced sweetness, more rounded, no bitter, very strong sweet profile” and the blend rating came out at 9. Also, the taste result in assay [7] is on record as “very sweet”.

Regarding `COC(=O)[C@H](Cc1ccccc1)NC(=O)[C@@H](N)CC(=O)O` [Aspartame] (H-Asp-Phe-OMe), in assay [5] (setting [11]), the sweetness comments result was “sweetness in the beverage spiked and then disappeared”; the sweetness profile rating is recorded as 4.

Regarding `CC1=CC(=O)[N-]S(=O)(=O)O1.[K+]` [Ace-K, acesulfame-k], in assay [6] (Ace-K at 100 ppm alone), the taste comments result was “delayed sweetness, some off notes, astringent and bitter”.

Regarding `OC[C@H]1O[C@@](CO)(O[C@H]2O[C@H](CO)[C@@H](O)[C@H](O)[C@H]2O)[C@@H](O)[C@@H]1O` [Sucrose, reference compound], the taste description entry in assay [1] (4% sucrose in water) is “moderate sweetness and mouthfeel”; in assay [1] (8% sucrose in water), “good level sweetness and excellent mouthfeel”.

With `CC(C)C(C)NC(=O)c1c(F)c(F)c(F)c(F)c1F` (stereo not shown) [Compound 53, N-(1,2-dimethylpropyl)-2,3,4,5,6-pentafluoro-benzamide], the Other taste attributes result in assay [1] is “Clean”.

Take `Cc1c(F)c(F)c(C(=O)NC(C)C(C)C)c(F)c1F` (stereo not shown) [2,3,5,6-tetrafluoro-4-methyl-N-(1,2-Dimethyl-propyl)benzamide, reference compound]: the Other taste attributes result in assay [1] was “Clean”.

As to `CN(C(=O)c1c(F)c(F)c(F)c(F)c1F)C1CCCCC1` [N-cyclohexyl-2,3,4,5,6-pentafluoro-N-methyl-benzamide], the taste entry in assay [7] is “tasteless”.

Consider `OC[C@H]1O[C@H](O[C@]2(CCl)O[C@H](CCl)[C@@H](O)[C@@H]2O)[C@H](O)[C@@H](O)[C@H]1Cl` [Sucralose], for which the taste comments entry in assay [6] (Sucralose at 60 ppm alone in plain water) is reported as “sweet onset, mouthwatering, sweetness lingers”.

As for `CC1CCC(NC(=O)c2c(F)c(F)c(F)c(F)c2F)CC1` (stereo not shown) [N-(4-methylcyclohexyl)-2,3,4,5,6-pentafluoro-benzamide], the taste result in assay [7] was “bitter”.

Turning to `Cc1cc(C)c(C(=O)NC(C)C(C)(C)C)c(C)c1` (stereo not shown) [Example 2, 2,4,6-trimethyl-N-(1,2,2-trimethylpropyl)-benzamide], the Other taste attributes result in assay [1] is recorded as “Clean”.

Regarding `CC1CCCCC1OC(=O)c1c(F)c(F)c(F)c(F)c1F` (stereo not shown) [2,3,4,5,6-pentafluorobenzoic acid 2-methylcyclohexyl ester], the taste result in assay [7] is given as “burning sensation”.

As to `Cc1c(F)c(F)c(C(=O)NC2CCCCC2C)c(F)c1F` (stereo not shown) [2,3,5,6-tetrafluoro-4-methyl-N-(2-methylcyclohexyl)benzamide], in assay [2], the profile description entry is on record as “slightly sweet, not much difference in profile to the blank muffin sample” and the sweetness intensity rating is 6. In addition, in assay [3], the taste description result is “mild vegetative, green and very bitter with some sugary notes”. In assay [4], the sweetness profile comments entry is “sour and slightly sweeter than the 8 brix blank”; the sweet intensity rating came to 7. Besides, in assay [5] (setting [8]), the sweetness comments result was “sweetness was well rounded, lingered, and gave mouthfeel”; the sweetness profile rating is 9. Further, in assay [6] (setting [9]), the taste comments result was “delayed sweetness, astringency, not as strong a sweetness as the combination with sweetener A” and the overall group rating is 7. Moreover, in assay [6] (setting [10]), the taste comments entry was “not as sweet as the combination with sweetener A, delayed sweetness” and the blend rating is listed as 7.

The molecule `O=C(N[C@H]1CCCc2ccccc21)c1ccoc1` (single isomer, unassigned) [1S isomer, reference compound] yielded an Other taste attributes in assay [1] of 1S isomer is tasteless.
